Patent US20090143417A1, “METHODS OF TREATING PAIN” (The University of Queensland, priority 2004, published 2009)

Tested on: naïve rats

Q: For `CN1CC[C@]23c4c5ccc(O)c4O[C@H]2[C@@H](O)C=C[C@H]3[C@H]1C5` [morphine], which “percent of the maximal pain relief effect” value (morphine ED20 dose 2.8 μmol/kg s.c. alone (FIG. 1)) is on record?
A: 20%

Q: And the “pain relief from a noxious thermal stimulus using the tail flick test” value (morphine single bolus 10 μmol/kg s.c., at one hour, naïve rats (FIG. 1))?
A: near maximal pain relief

Q: And the “ED20 of morphine (antinociception, tail flick)” value (s.c., naïve rats)?
A: ~2.8 µmol/kg

Q: And the “peak levels of antinociception, % of the maximum possible effect” value (single s.c. bolus administered alone: 2 at 0.04 nmol/kg, morphine at 2.8 μmol/kg)?
A: 21 % NPE
